Source: the supplement of paper PMC10307832

Experiments:
Test in all cases: relative viability (nuclei count vs DMSO), 5 days (fraction); higher = more cells survive
[1] = compound: C1=CC=C(C(=C1)C2=CC=C(C=C2)C3=CSC4=C3C(=C(C(=O)N4)C#N)O)O + COc1cc2c(Oc3ccc(NC(=O)C4(C(=O)Nc5ccc(F)cc5)CC4)cc3F)ccnc2cc1OCCCN1CCOCC1 [Foretinib] (partner 0.25 µM)
How it was run: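 Relative viability divides the nuclei count in treated wells by that in vehicle wells. Lung cancer cell lines were seeded in 1536-well plates, dosed by pin tool the next day, and fixed and stained after 5 days in one step with final 0.05% Triton X-100, 1% formaldehyde and 1 ug/ml Hoechst. Dosing was a single drug or a fixed anchor-drug dose plus five library-drug doses (not always all listed) in √10 steps, and values are medians of duplicate plates imaged at 4×.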

[2] = compound: C1=CC=C(C(=C1)C2=CC=C(C=C2)C3=CSC4=C3C(=C(C(=O)N4)C#N)O)O
How it was run: (§1)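 Lung cancer cell lines were seeded into 1536-well plates, kept overnight at 37 °C and pinned with five library-drug doses (not always all listed) spaced by √10. After 5 days, nuclei were Hoechst-stained, imaged at 4× and counted with MetaXpress. Viability is treated-well nuclei over vehicle-well nuclei, taken as a median across plates. Plates needed control CV below 25% and at least one doubling.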

[3] = compound: CC1=CN2C(=O)C=C(N=C2C(=C1)C(C)NC3=CC=CC=C3)N4CCOCC4 [TGX 221]
How it was run: as §1

[4] = compound: O=C(CCCCCCNC(=O)c1cnc(N(c2ccccc2)c2ccccc2)nc1)NO [Ricolinostat]
How it was run: as §1

HCC-827
relative viability ([1]; first compound 0.08 µM): 1.11
relative viability ([1]; first compound 0.253 µM): 1.04
relative viability ([1]; first compound 0.8 µM): 1.04
relative viability ([1]; first compound 2.53 µM): 1.06
relative viability ([1]; first compound 8 µM): 0.969
relative viability ([2]; 0.08 µM): 1.03
relative viability ([2]; 0.253 µM): 1.05
relative viability ([2]; 0.8 µM): 1.08
relative viability ([2]; 2.53 µM): 1.07
relative viability ([2]; 8 µM): 1.11
relative viability ([3]; 0.08 µM): 0.982
relative viability ([3]; 0.253 µM): 1.03
relative viability ([3]; 0.8 µM): 1.07
relative viability ([3]; 2.53 µM): 1.04
relative viability ([3]; 8 µM): 0.983
relative viability ([4]; 0.08 µM): 0.946
relative viability ([4]; 0.253 µM): 1.02
relative viability ([4]; 0.8 µM): 1.01
relative viability ([4]; 2.53 µM): 0.991

NCI-H1437
relative viability ([1]; first compound 0.08 µM): 1.24
relative viability ([1]; first compound 0.253 µM): 1.32
relative viability ([1]; first compound 0.8 µM): 1.36
relative viability ([1]; first compound 2.53 µM): 1.37
relative viability ([1]; first compound 8 µM): 1.1
relative viability ([2]; 0.08 µM): 0.935
relative viability ([2]; 0.253 µM): 1.11
relative viability ([2]; 0.8 µM): 0.994
relative viability ([2]; 2.53 µM): 1.14
relative viability ([2]; 8 µM): 0.891
relative viability ([3]; 0.08 µM): 1.02
relative viability ([3]; 0.253 µM): 0.942
relative viability ([3]; 0.8 µM): 0.998
relative viability ([3]; 2.53 µM): 0.983
relative viability ([3]; 8 µM): 0.929
relative viability ([4]; 0.08 µM): 0.951
relative viability ([4]; 0.253 µM): 0.993
relative viability ([4]; 0.8 µM): 0.969
relative viability ([4]; 2.53 µM): 0.763

EBC-1
relative viability ([1]; first compound 0.08 µM): 0.103
relative viability ([1]; first compound 0.253 µM): 0.101
relative viability ([1]; first compound 0.8 µM): 0.123
relative viability ([1]; first compound 2.53 µM): 0.0897
relative viability ([1]; first compound 8 µM): 0.115
relative viability ([2]; 0.08 µM): 1.04
relative viability ([2]; 0.253 µM): 1.14
relative viability ([2]; 0.8 µM): 0.975
relative viability ([2]; 2.53 µM): 1.15
relative viability ([2]; 8 µM): 0.768
relative viability ([3]; 0.08 µM): 0.952
relative viability ([3]; 0.253 µM): 1.03
relative viability ([3]; 0.8 µM): 0.976
relative viability ([3]; 2.53 µM): 0.891
relative viability ([3]; 8 µM): 0.736
relative viability ([4]; 0.08 µM): 0.808
relative viability ([4]; 0.253 µM): 0.886
relative viability ([4]; 0.8 µM): 0.895
relative viability ([4]; 2.53 µM): 0.449

EPLC-272H
relative viability ([1]; first compound 0.08 µM): 0.613
relative viability ([1]; first compound 0.253 µM): 0.813
relative viability ([1]; first compound 0.8 µM): 0.772
relative viability ([1]; first compound 2.53 µM): 0.708
relative viability ([1]; first compound 8 µM): 0.524
relative viability ([2]; 0.08 µM): 0.688
relative viability ([2]; 0.253 µM): 0.773
relative viability ([2]; 0.8 µM): 0.926
relative viability ([2]; 2.53 µM): 1
relative viability ([2]; 8 µM): 0.788
relative viability ([3]; 0.08 µM): 0.911
relative viability ([3]; 0.253 µM): 0.837
relative viability ([3]; 0.8 µM): 1.02
relative viability ([3]; 2.53 µM): 0.727
relative viability ([3]; 8 µM): 0.978
relative viability ([4]; 0.08 µM): 0.673
relative viability ([4]; 0.253 µM): 0.942
relative viability ([4]; 0.8 µM): 0.719
relative viability ([4]; 2.53 µM): 0.577

NCI-H2126
relative viability ([1]; first compound 0.08 µM): 1.41
relative viability ([1]; first compound 0.253 µM): 1.22
relative viability ([1]; first compound 0.8 µM): 1.43
relative viability ([1]; first compound 2.53 µM): 1.15
relative viability ([1]; first compound 8 µM): 1.01
relative viability ([2]; 0.08 µM): 0.943
relative viability ([2]; 0.253 µM): 1.09
relative viability ([2]; 0.8 µM): 1
relative viability ([2]; 2.53 µM): 0.963
relative viability ([2]; 8 µM): 0.979
relative viability ([3]; 0.08 µM): 0.945
relative viability ([3]; 0.253 µM): 0.989
relative viability ([3]; 0.8 µM): 0.968
relative viability ([3]; 2.53 µM): 0.837
relative viability ([3]; 8 µM): 0.944
relative viability ([4]; 0.08 µM): 0.718
relative viability ([4]; 0.253 µM): 1.01
relative viability ([4]; 0.8 µM): 0.989
relative viability ([4]; 2.53 µM): 0.969

NCI-H1666
relative viability ([1]; first compound 0.08 µM): 1
relative viability ([1]; first compound 0.253 µM): 0.976
relative viability ([1]; first compound 0.8 µM): 0.95
relative viability ([1]; first compound 2.53 µM): 1.01
relative viability ([1]; first compound 8 µM): 0.916
relative viability ([2]; 0.08 µM): 1.02
relative viability ([2]; 0.253 µM): 1.3
relative viability ([2]; 0.8 µM): 1.03
relative viability ([2]; 2.53 µM): 0.998
relative viability ([2]; 8 µM): 0.873
relative viability ([3]; 0.08 µM): 1.01
relative viability ([3]; 0.253 µM): 0.955
relative viability ([3]; 0.8 µM): 0.946
relative viability ([3]; 2.53 µM): 0.97
relative viability ([3]; 8 µM): 0.933
relative viability ([4]; 0.08 µM): 0.963
relative viability ([4]; 0.253 µM): 0.948
relative viability ([4]; 0.8 µM): 0.986
relative viability ([4]; 2.53 µM): 0.904

RERF-LC-KJ
relative viability ([1]; first compound 0.08 µM): 0.917
relative viability ([1]; first compound 0.253 µM): 0.996
relative viability ([1]; first compound 0.8 µM): 0.902
relative viability ([1]; first compound 2.53 µM): 0.914
relative viability ([1]; first compound 8 µM): 0.778
relative viability ([2]; 0.08 µM): 1.07
relative viability ([2]; 0.253 µM): 1.07
relative viability ([2]; 0.8 µM): 0.987
relative viability ([2]; 2.53 µM): 1.01
relative viability ([2]; 8 µM): 0.8
relative viability ([3]; 0.08 µM): 0.895
relative viability ([3]; 0.253 µM): 0.933
relative viability ([3]; 0.8 µM): 0.964
relative viability ([3]; 2.53 µM): 0.917
relative viability ([3]; 8 µM): 0.938
relative viability ([4]; 0.08 µM): 0.955
relative viability ([4]; 0.253 µM): 1.02
relative viability ([4]; 0.8 µM): 0.984
relative viability ([4]; 2.53 µM): 0.814

A549
relative viability ([1]; first compound 0.08 µM): 0.688
relative viability ([1]; first compound 0.253 µM): 1.07
relative viability ([1]; first compound 0.8 µM): 0.971
relative viability ([1]; first compound 2.53 µM): 0.756
relative viability ([1]; first compound 8 µM): 0.649
relative viability ([2]; 0.08 µM): 0.908
relative viability ([2]; 0.253 µM): 1.19
relative viability ([2]; 0.8 µM): 1.02
relative viability ([2]; 2.53 µM): 0.977
relative viability ([2]; 8 µM): 0.675
relative viability ([3]; 0.08 µM): 0.954
relative viability ([3]; 0.253 µM): 0.884
relative viability ([3]; 0.8 µM): 0.953
relative viability ([3]; 2.53 µM): 0.927
relative viability ([3]; 8 µM): 0.867
relative viability ([4]; 0.08 µM): 0.792
relative viability ([4]; 0.253 µM): 0.945
relative viability ([4]; 0.8 µM): 0.926
relative viability ([4]; 2.53 µM): 0.971

IA-LM
relative viability ([1]; first compound 0.08 µM): 0.893
relative viability ([1]; first compound 0.253 µM): 1.35
relative viability ([1]; first compound 0.8 µM): 1.01
relative viability ([1]; first compound 2.53 µM): 1.41
relative viability ([1]; first compound 8 µM): 1.14
relative viability ([2]; 0.08 µM): 0.725
relative viability ([2]; 0.253 µM): 1.45
relative viability ([2]; 0.8 µM): 1.04
relative viability ([2]; 2.53 µM): 1.15
relative viability ([2]; 8 µM): 0.655
relative viability ([3]; 0.08 µM): 0.883
relative viability ([3]; 0.253 µM): 0.96
relative viability ([3]; 0.8 µM): 1.07
relative viability ([3]; 2.53 µM): 0.981
relative viability ([3]; 8 µM): 0.966
relative viability ([4]; 0.08 µM): 0.657
relative viability ([4]; 0.253 µM): 0.924
relative viability ([4]; 0.8 µM): 0.797
relative viability ([4]; 2.53 µM): 0.777

ABC-1
relative viability ([1]; first compound 0.08 µM): 1
relative viability ([1]; first compound 0.253 µM): 1.13
relative viability ([1]; first compound 0.8 µM): 1.05
relative viability ([1]; first compound 2.53 µM): 0.951
relative viability ([1]; first compound 8 µM): 1.09
relative viability ([2]; 0.08 µM): 0.854
relative viability ([2]; 0.253 µM): 0.866
relative viability ([2]; 0.8 µM): 1.01
relative viability ([2]; 2.53 µM): 0.874
relative viability ([2]; 8 µM): 0.881
relative viability ([3]; 0.08 µM): 0.827
relative viability ([3]; 0.253 µM): 0.924
relative viability ([3]; 0.8 µM): 0.979
relative viability ([3]; 2.53 µM): 1.02
relative viability ([3]; 8 µM): 0.922
relative viability ([4]; 0.08 µM): 1
relative viability ([4]; 0.253 µM): 0.996
relative viability ([4]; 0.8 µM): 0.846
relative viability ([4]; 2.53 µM): 0.88

ChaGo-K-1
relative viability ([1]; first compound 0.08 µM): 0.882
relative viability ([1]; first compound 0.253 µM): 0.9
relative viability ([1]; first compound 0.8 µM): 1.08
relative viability ([1]; first compound 2.53 µM): 1.02
relative viability ([1]; first compound 8 µM): 0.723
relative viability ([2]; 0.08 µM): 0.785
relative viability ([2]; 0.253 µM): 1.08
relative viability ([2]; 0.8 µM): 1.01
relative viability ([2]; 2.53 µM): 1.01
relative viability ([2]; 8 µM): 0.809
relative viability ([3]; 0.08 µM): 0.904
relative viability ([3]; 0.253 µM): 0.938
relative viability ([3]; 0.8 µM): 0.987
relative viability ([3]; 2.53 µM): 0.958
relative viability ([3]; 8 µM): 1.04
relative viability ([4]; 0.08 µM): 0.936
relative viability ([4]; 0.253 µM): 1
relative viability ([4]; 0.8 µM): 0.921
relative viability ([4]; 2.53 µM): 0.832
